Measured values: PMC12152883, “Bile acids inhibit equilibrative adenosine transport to alter adenosine receptor signaling in cholestasis” (The Journal of Biological Chemistry, 2025)
Where “and” joins values, the source holds several entries; their conditions need not be identical. Identical values can stand only once. Like-named read-outs stand apart in the source and are kept apart here.

Experiments:
HepG2 cell line = test: 3H-nucleoside uptake inhibition by BAs in HepG2 cell line; type: cell-based; conditions: BA 100 μM; for % Inhibition of Ado uptake, HepG2 cell line, Sodium buffer / % Inhibition of Ado uptake, HepG2 cell line, Sodium-free buffer: 3H-Ado 0.02 μM; for extent of inhibition of guanosine transport, HepG2 cells: 3H-guanosine 0.02 μM, Na+-free
Source text: In the presence of multiple substrates with similar affinities, the abundant substrate molecules can compete for binding to the transport sites, reducing the transport of the limiting substrate molecules ([31]). […] We tested the possibility of BA-mediated nucleoside transport inhibition using a HeLa cell line (expressing ENTs (ENT1, ENT2) ([32])) and a HepG2 cell line (expressing both ENTs (ENT1, ENT2) and CNTs (CNT1, CNT2) ([33])) to conduct Ado uptake inhibition assays in Na^+-containing (where both ENTs and CNTs are capable of transport) and Na^+-free (only ENTs are capable of transport) buffers (Fig. 3 and Table 1).
The bars represent the mean ± SD (n = 3). A representative experiment from 3 to 5 independent experiments is presented. Statistical analysis was performed using one-way ANOVA with Dunnett’s multiple comparisons test; ∗p < 0.032, ∗∗p < 0.0021, ∗∗∗p < 0.0002.
HeLa (CCL-2) and HepG2 (HB_8065) were procured from ATCC. Both cell lines were cultured in Eagle's minimum essential medium and Dulbecco's modified Eagle's medium, respectively, supplemented with 10% fetal bovine serum and penicillin-streptomycin (1X). After cells were tested free for mycoplasma contamination, they were plated in 24-well plates, and transport assays were conducted when the cells were 80% confluent. The cells were briefly rinsed with PBS, and then the uptake of radiolabeled substrates was measured after a 5 min incubation in sodium containing (130 mM NaCl, 20 mM Tris–HCl, 3 mM K2HPO4, 1 mM MgCl2.6H2O, 2 mM CaCl2, 5 mM glucose, pH 7.4) or sodium-free (130 mM N-methyl-D-glucamin, 20 mM Tris–HCl, 3 mM K2HPO4, 1 mM MgCl2.6H2O, 2 mM CaCl2, 5 mM glucose, pH 7.4) transport buffers at 37 °C. Uptake was terminated by washing the cells three times with ice-cold arrest buffer containing 20 mM uridine. The cells were shaken for 30 min in 10% SDS for complete dissolution, after which the radioactivity was quantified with a Beckman liquid scintillation counter. The data are presented as the mean ± SD (n = 3).

ENT2 = target: T1, ENT2 (Homo sapiens, UniProt Q14542); test: Inhibition of 3H-nucleoside influx by BAs in ENT2-expressing Xenopus oocytes; type: cell-based; set-up: expressed in transfected cells; host or cells: Xenopus laevis oocytes injected with in vitro-transcribed capped mRNA from pOX-hENT2
T1 sequence (Q14542 1-456): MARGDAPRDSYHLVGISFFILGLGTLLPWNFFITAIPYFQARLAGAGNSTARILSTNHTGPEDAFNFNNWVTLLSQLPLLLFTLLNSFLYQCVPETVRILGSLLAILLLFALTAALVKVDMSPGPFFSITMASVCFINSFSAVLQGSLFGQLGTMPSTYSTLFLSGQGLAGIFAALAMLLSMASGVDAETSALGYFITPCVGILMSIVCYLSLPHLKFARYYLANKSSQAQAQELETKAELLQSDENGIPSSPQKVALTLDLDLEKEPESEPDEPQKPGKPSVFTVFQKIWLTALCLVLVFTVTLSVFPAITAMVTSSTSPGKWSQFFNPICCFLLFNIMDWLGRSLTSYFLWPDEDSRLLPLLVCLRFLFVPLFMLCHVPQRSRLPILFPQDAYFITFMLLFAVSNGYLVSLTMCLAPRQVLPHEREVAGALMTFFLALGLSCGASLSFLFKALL
Source text: We expressed individual ENTs (ENT1, ENT2, and ENT3) in X. laevis oocytes (as described above) and analyzed the Ado influx from each of the ENTs in the presence of different BAs to better understand whether the inhibition profiles differ across human ENTs. […] We also conducted an analysis of the concentration-dependent inhibition of Ado transport to estimate the IC50 values of the BAs (Fig. 4, D–F and Table 2).
Inhibition of Ado influx in H2O- and ENT-injected oocytes by treatment with different BAs at 100 μM. D–F, concentration-dependent inhibition of Ado influx in ENT-injected oocytes by different BAs. The bars represent the mean ± SD (n = 8–12 oocytes). A representative experiment from 3 to 5 independent experiments is presented. Statistical analysis was performed using one-way ANOVA with Dunnett’s multiple comparisons test; ∗p < 0.032, ∗∗p < 0.0021, ∗∗∗∗p < 0.0001.
The generated pOX expression constructs were linearized with either the Not1 or Sac1 restriction enzymes. The digested products were purified via phenol‒chloroform extraction. The mRNAs were synthesized using mMESSAGE mMACHINE (Ambion) transcription kits according to the manufacturer’s instructions. The mRNAs were purified via lithium precipitation. Oocytes were procured from Ecocyte. Prior to experiments, procured oocytes were defolliculated by treating with collagenase A-OR II solution followed by washing with Barth’s solution. Following microscopic verification, selected oocytes were incubated to recover overnight at 25 °C in a shaker incubator. Fifty nanoliters (400–800 ng/μl) of equal amounts of mRNAs were injected into defolliculated oocytes the next day. Expression of plasmids was analyzed after RNA isolation from oocyte extracts and conducting qPCR analysis with gene-specific primers as described earlier ([30]). The injected oocytes were incubated at 15 °C for 24 h before transport assays were performed. […] Uptake was terminated by washing the oocytes three times with arrest buffer containing 20 mM uridine. Individual oocytes were shaken overnight in 10% SDS for complete dissolution, and then the radioactivity was quantified with a Beckman liquid scintillation counter. The data are presented as the mean ± SD (n = 8–12 oocytes). A representative experiment from 3 to 5 independent experiments is presented.

[1] = 3H-Ado 20 μM, sodium-free buffer, read-out: ENT2 IC50 (Ado uptake)
[2] = BA 100 μM, 3H-Ado 20 μM, sodium-free buffer

SMILES | % Inhibition of Ado uptake, HepG2 cell line, Sodium buffer (HepG2 cell line) | % Inhibition of Ado uptake, HepG2 cell line, Sodium-free buffer (HepG2 cell line) | extent of inhibition of guanosine transport, HepG2 cells (HepG2 cell line) | IC50 (ENT2; [1]) | ENT2 % uptake inhibition (Ado) (ENT2; [2]) | inhibition of guanosine transport mediated by ENT2 (ENT2; BA 100 μM, 3H-guanosine 20 μM) | inhibition of ENT2-mediated uridine uptake (ENT2; BA 100 μM, 3H-uridine 20 μM) | IC50 (ENT2)
C[C@H](CCC(=O)O)[C@H]1CC[C@H]2[C@@H]3[C@H](O)C[C@@H]4C[C@H](O)CC[C@]4(C)[C@H]3C[C@H](O)[C@]12C [CA, cholic acid] | n.s. | 59.86 ± 0.19% | 12% | 7.1 ± 1.6 µM | 74.58% | – | – | –
C[C@H](CCC(=O)O)[C@H]1CC[C@H]2[C@@H]3CC[C@@H]4C[C@H](O)CC[C@]4(C)[C@H]3C[C@H](O)[C@]12C [DCA, deoxycholic acid] | n.s. | 49.36 ± 0.02% | 12% | 0.9 ± 0.2 µM | 65% and 64.77% | not statistically significant | inhibition of the ENT2-mediated uridine uptake | –
C[C@H](CCC(=O)NCCS(=O)(=O)O)[C@H]1CC[C@H]2[C@@H]3[C@H](O)C[C@@H]4C[C@H](O)CC[C@]4(C)[C@H]3C[C@H](O)[C@]12C [TCA, taurocholic acid] | n.s. | 62.36 ± 0.03% | 17.5% | – | 70.68% | – | – | 19.5 ± 4.5 µM
